Numbered stars: 1 amine (or outer) side, 2 acyl side, 3 side chain; on linkers, the order of the positions; unused ones are H or OH. Peptide text beside a SMILES is read from it. Suc = O=C(CCC(=O)[*:2])[*:1]
System: urethane anesthetized rat
Assay: Arterial blood gas analysis
Assay type: in vivo, Sprague-Dawley rats
Details: IRL-1620 5 μg/kg, i.v., ET-1 0.75 μg/kg
Method: Male Sprague-Dawley rats weighing 323±4 grams (g) were anesthetized with urethane (ethyl carbamate, Sigma Aldrich, St. Louis, Mo.) dissolved in isotonic saline (0.9% NaCl, Hospira, Inc., Lake Forest, Ill.). The rats were administered a dose of 0.15 g per 100 g body weight via intraperitoneal (i.p.) injection.
Blood Gas Analysis: Arterial blood gases were monitored to determine the effects on pH, pCO2, and pO2. Blood was drawn from the arteriole cannula and analyzed using a GEM Premier 3000 unit (Instrument Laboratory, Lexington, Mass.).
Blood pressure, heart rate, cerebral blood perfusion, and renal blood perfusion all were recorded for 2 hours following the final injection. Blood gases were analyzed prior to administration of any drugs, and at 60 and 120 min following administration of IRL-1620 or ET-1. At the end of each experiment, the animals were euthanized with an overdose of urethane i.v. In the figures, all data values are presented as mean±SEM. One-sample t-tests and one-way ANOVAs were used to test the differences within and between the groups. A P value of P<0.05 was considered significant.

[1] = time 0 min (prior to any drugs)

Compound: CC[C@H](C)[C@H](NC(=O)[C@H](CC(=O)O)NC(=O)[C@H](CC(C)C)NC(=O)[C@H](Cc1c[nH]cn1)NC(=O)[C@H](C)NC(=O)[C@H](Cc1ccccc1)NC(=O)[C@H](Cc1ccc(O)cc1)NC(=O)[C@@H](NC(=O)[C@H](C)NC(=O)[C@H](CCC(=O)O)NC(=O)[C@H](CCC(=O)O)NC(=O)[C@H](CC(=O)O)NC(=O)CCC(=O)O)C(C)C)C(=O)N[C@H](C(=O)N[C@@H](Cc1c[nH]c2ccccc12)C(=O)O)[C@@H](C)CC [IRL-1620, N-Succinyl-[Glu^9, Ala^11,15]-Endothelin 1 fragment 8-21] (Suc-DEEAVYFAHLDIIW-OH)
- effect on arterial blood gases (text to Table 2): Neither IRL-1620 nor ET-1 significantly affected blood gases
- arterial blood pCO2 [1]: 42 ± 2
- arterial blood pH [1]: 7.32 ± 0.01
- arterial blood pO2 [1]: 103 ± 3
- arterial blood pCO2 (time 60 min): 46 ± 6
- arterial blood pH (time 60 min): 7.27 ± 0.01
- arterial blood pO2 (time 60 min): 99 ± 9
- arterial blood pCO2 (time 120 min): 32 ± 3
- arterial blood pH (time 120 min): 7.29 ± 0.01
- arterial blood pO2 (time 120 min): 113 ± 6

— patent publication US9493524B2, “Methods for treatment of stroke or cerebrovascular accidents using an ETB receptor agonist” (MIDWESTERN UNIVERSITY, priority 2007, dated 2016)
